In ChEMBL document CHEMBL1201862, “PubChem BioAssay data set” (2004):
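All cell lines were grown in 96-well plates and treated with compound for 48 hours. GI50 = concentration required for 50% inhibition of growth.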 Calls of active or inactive are those of the source. Rule as the data show it: active = GI50 up to about 1.1 µM and inactive = higher.

Tests used:
Assay in all cases: NCI-60 cell line screen, 48 h
HCC 2998 = tested on: HCC 2998
NCI-H460 = tested on: NCI-H460
UACC-62 = tested on: UACC-62
IGROV-1 = tested on: IGROV-1
RXF 393 = tested on: RXF 393
A549 = tested on: A549
786-0 = tested on: 786-0
SN12C = tested on: SN12C
ACHN = tested on: ACHN
U-251 = tested on: U-251
M14 = tested on: M14
RPMI-8226 = tested on: RPMI-8226
SK-MEL-5 = tested on: SK-MEL-5
COLO 205 = tested on: COLO 205
Malme-3M = tested on: Malme-3M
KM12 = tested on: KM12
MDA-MB-231 = tested on: MDA-MB-231
MDA-N = tested on: MDA-N
MCF7 = tested on: MCF7
DU-145 = tested on: DU-145

SMILES | GI50 (HCC 2998) | GI50 (NCI-H460) | GI50 (UACC-62) | GI50 (IGROV-1) | GI50 (RXF 393) | GI50 (A549) | GI50 (786-0) | GI50 (SN12C) | GI50 (ACHN) | GI50 (U-251) | GI50 (M14) | GI50 (RPMI-8226) | GI50 (SK-MEL-5) | GI50 (COLO 205) | GI50 (Malme-3M) | GI50 (KM12) | GI50 (MDA-MB-231) | GI50 (MDA-N) | GI50 (MCF7) | GI50 (DU-145)
C#CCN(Cc1ccc2nc(-c3ccccc3)c(Cl)nc2c1)c1cc(OC)c(OC)c(OC)c1 | > 100 µM (inactive) | 46.1 µM (inactive) | > 100 µM (inactive) | > 100 µM (inactive) | 37.1 µM (inactive) | 86.9 µM (inactive) | > 100 µM (inactive) | > 100 µM (inactive) | 58.2 µM (inactive) | 27 µM (inactive) | > 100 µM (inactive) | 16.1 µM (inactive) | 30.3 µM (inactive) | 57.1 µM (inactive) | > 100 µM (inactive) | > 100 µM (inactive) |  |  |  | 
COc1cc(NCCC(=O)O)c2ncccc2c1 |  | > 100 µM (inactive) | > 100 µM (inactive) | > 100 µM (inactive) | > 100 µM (inactive) | > 100 µM (inactive) | > 100 µM (inactive) | > 100 µM (inactive) | > 100 µM (inactive) | > 100 µM (inactive) | > 100 µM (inactive) |  | > 100 µM (inactive) |  | > 100 µM (inactive) |  | > 100 µM (inactive) | > 100 µM (inactive) |  | 
[N-]=[N+]=Nc1cc(=O)n(-c2ccccc2)c(=O)n1-c1ccccc1 |  |  | 67 µM (inactive) | > 100 µM (inactive) | > 100 µM (inactive) | > 100 µM (inactive) | > 100 µM (inactive) | > 100 µM (inactive) | > 100 µM (inactive) | > 100 µM (inactive) | > 100 µM (inactive) | > 100 µM (inactive) | > 100 µM (inactive) | > 100 µM (inactive) | > 100 µM (inactive) | > 100 µM (inactive) | > 100 µM (inactive) |  | > 100 µM (inactive) | 
C1CN2N3CCCC23C1 (stereo not given) | > 100 µM (inactive) | > 100 µM (inactive) | > 100 µM (inactive) | > 100 µM (inactive) | > 100 µM (inactive) | > 100 µM (inactive) | > 100 µM (inactive) | > 100 µM (inactive) | > 100 µM (inactive) | > 100 µM (inactive) | > 100 µM (inactive) | > 100 µM (inactive) | > 100 µM (inactive) | > 100 µM (inactive) | > 100 µM (inactive) | > 100 µM (inactive) |  |  |  | 
COC[n+]1cc2cc(OC)c(OC)cc2c2ccc3cc(OC)c(OC)cc3c21 | > 100 µM (inactive) | > 100 µM (inactive) | > 100 µM (inactive) | > 100 µM (inactive) | > 100 µM (inactive) | > 100 µM (inactive) | > 100 µM (inactive) | > 100 µM (inactive) | > 100 µM (inactive) | > 100 µM (inactive) | > 100 µM (inactive) | > 100 µM (inactive) | > 100 µM (inactive) | > 100 µM (inactive) | > 100 µM (inactive) | > 100 µM (inactive) |  |  |  | 
N#Cc1cccnc1Cl | > 100 µM (inactive) | > 100 µM (inactive) | > 100 µM (inactive) | > 100 µM (inactive) | > 100 µM (inactive) | > 100 µM (inactive) | > 100 µM (inactive) | > 100 µM (inactive) | > 100 µM (inactive) | > 100 µM (inactive) | > 100 µM (inactive) | > 100 µM (inactive) | > 100 µM (inactive) | > 100 µM (inactive) | > 100 µM (inactive) | > 100 µM (inactive) |  |  |  | 
CCN(CC)Cc1ccc(C(=S)Nc2ccc(C)cc2)s1 | 12.9 µM (inactive) | 15.4 µM (inactive) | 14.2 µM (inactive) | 10.9 µM (inactive) |  | 16.6 µM (inactive) | 15.5 µM (inactive) |  | 16 µM (inactive) | 14.7 µM (inactive) | 15.1 µM (inactive) | 14.7 µM (inactive) | 13.4 µM (inactive) | 16 µM (inactive) | 16.5 µM (inactive) | 15.3 µM (inactive) |  |  | 12.3 µM (inactive) | 20.5 µM (inactive)
Cc1ccc2nc3ccccc3c(C3C4C(=O)N(c5ccc(F)cc5)C(=O)C4ON3C(C(N)=O)c3ccccc3)c2c1 (stereo not given) |  | 34.8 µM (inactive) | 20.6 µM (inactive) | 25.4 µM (inactive) | 30.2 µM (inactive) | 29.4 µM (inactive) | 37.9 µM (inactive) | 33 µM (inactive) | 49.3 µM (inactive) | 29.4 µM (inactive) | 57 µM (inactive) | 25.3 µM (inactive) |  | 17.5 µM (inactive) | 27.4 µM (inactive) | 32.4 µM (inactive) | 39.8 µM (inactive) |  | 23.4 µM (inactive) | 59.3 µM (inactive)
COC(=O)C1(C(=O)OC)N=C(C)OC1c1ccccc1O (stereo not given) | > 100 µM (inactive) | > 100 µM (inactive) | > 100 µM (inactive) | > 100 µM (inactive) | > 100 µM (inactive) | > 100 µM (inactive) | > 100 µM (inactive) | > 100 µM (inactive) | > 100 µM (inactive) | > 100 µM (inactive) | > 100 µM (inactive) | > 100 µM (inactive) | > 100 µM (inactive) | > 100 µM (inactive) |  | > 100 µM (inactive) |  |  | > 100 µM (inactive) | > 100 µM (inactive)
O=C(CC1=Nc2nnc(-c3nnc4n3C(=O)C(CC(=O)C3CC3)=N4)n2C1=O)C1CC1 | > 100 µM (inactive) | > 100 µM (inactive) | > 100 µM (inactive) | > 100 µM (inactive) | > 100 µM (inactive) | > 100 µM (inactive) | > 100 µM (inactive) | > 100 µM (inactive) | > 100 µM (inactive) | > 100 µM (inactive) | > 100 µM (inactive) | > 100 µM (inactive) | > 100 µM (inactive) | > 100 µM (inactive) | > 100 µM (inactive) | > 100 µM (inactive) |  |  |  | 
COc1cc([C@@H]2c3cc4c(cc3[C@@H](OC(=O)c3ccccc3)C3COC(=O)[C@@H]32)OCO4)cc(OC)c1O (stereo not given in full) | 0.0345 µM (active) | 0.0129 µM (active) | < 0.01 µM (active) | 0.0123 µM (active) | 0.0101 µM (active) | 0.0132 µM (active) | 0.0254 µM (active) | 0.0286 µM (active) | < 0.01 µM (active) | 0.0143 µM (active) |  | 0.012 µM (active) | < 0.01 µM (active) | 0.148 µM (active) | < 0.01 µM (active) | < 0.01 µM (active) |  |  |  | 
CCOC(=O)C(=O)C=P(c1ccccc1)(c1ccccc1)c1ccccc1 | > 100 µM (inactive) | 34.6 µM (inactive) | > 100 µM (inactive) | > 100 µM (inactive) | > 100 µM (inactive) | > 100 µM (inactive) | > 100 µM (inactive) | > 100 µM (inactive) | > 100 µM (inactive) | > 100 µM (inactive) | > 100 µM (inactive) | > 100 µM (inactive) | > 100 µM (inactive) | > 100 µM (inactive) | > 100 µM (inactive) | > 100 µM (inactive) |  |  |  | 
Nc1ncc(/C=N/O)c(NCC2(CO)CC(CCc3ccccc3)C2)n1 (stereo not given) | 15.5 µM (inactive) | 5.74 µM (inactive) | 12.3 µM (inactive) | 6.75 µM (inactive) | 12.1 µM (inactive) | 2.48 µM (inactive) | 15.2 µM (inactive) | 17 µM (inactive) |  | 12 µM (inactive) |  | 5.73 µM (inactive) | 0.0577 µM (active) | 10.8 µM (inactive) | 12.1 µM (inactive) | 14.3 µM (inactive) | 9.71 µM (inactive) |  | 4.58 µM (inactive) | 5.41 µM (inactive)
O=[PH](O)c1ccccn1 | > 100 µM (inactive) | > 100 µM (inactive) | > 100 µM (inactive) | > 100 µM (inactive) | > 100 µM (inactive) | > 100 µM (inactive) | > 100 µM (inactive) | > 100 µM (inactive) | > 100 µM (inactive) | > 100 µM (inactive) | > 100 µM (inactive) | > 100 µM (inactive) | > 100 µM (inactive) | > 100 µM (inactive) | > 100 µM (inactive) | > 100 µM (inactive) |  |  |  | 
CCOc1ccc(-c2oc(/C=N/NS(=O)(=O)c3ccc(C)cc3)c([N+](=O)[O-])c2-c2ccc(OCC)cc2)cc1 | 14.4 µM (inactive) | 13.2 µM (inactive) | 7.11 µM (inactive) | 14.1 µM (inactive) | 12.3 µM (inactive) | 19.4 µM (inactive) | 12.4 µM (inactive) | 12.8 µM (inactive) | 10.9 µM (inactive) | 8.22 µM (inactive) | 12.4 µM (inactive) | 2.58 µM (inactive) | 6.76 µM (inactive) | 17.5 µM (inactive) | 19.1 µM (inactive) | 8.81 µM (inactive) |  |  |  | 
COc1ccc(OC)c(N2CC(N)C2=O)c1 (stereo not given) | > 100 µM (inactive) | > 100 µM (inactive) | > 100 µM (inactive) | > 100 µM (inactive) | > 100 µM (inactive) | > 100 µM (inactive) | > 100 µM (inactive) | > 100 µM (inactive) | > 100 µM (inactive) | > 100 µM (inactive) | > 100 µM (inactive) | > 100 µM (inactive) | > 100 µM (inactive) | > 100 µM (inactive) | > 100 µM (inactive) | > 100 µM (inactive) |  |  |  | 
O=[N+]([O-])c1cccc2c(/N=N/c3ccc4ccccc4c3O)c(O)cc(S(=O)(=O)O)c12 |  |  | 7.78 µM (inactive) | 7.29 µM (inactive) | 38.4 µM (inactive) | 32.7 µM (inactive) | 17.8 µM (inactive) | 64.7 µM (inactive) | 22.5 µM (inactive) | 9.59 µM (inactive) | 21.6 µM (inactive) | > 100 µM (inactive) | 31 µM (inactive) |  | 14.6 µM (inactive) | 55.6 µM (inactive) |  | 31.1 µM (inactive) |  | 
